In ChEMBL document CHEMBL1155426, “Discovery of a novel series of semisynthetic vancomycin derivatives effective against vancomycin-resistant bacteria” (J Med Chem, 2010):
Values after ≈ are worked out from the molar mass of the structure shown.

Legend:
Enterococcus faecalis [1] = test: Antibacterial activity against vancomycin A-resistant Enterococcus faecalis SR-7914; type: functional; details: SR7914
Enterococcus faecium [2] = test: Antibacterial activity against vancomycin B-resistant Enterococcus faecium SR-23598; type: functional; details: SR23598
Enterococcus faecalis [3] = test: Antibacterial activity against vancomycin-susceptible Enterococcus faecalis SR1004; type: functional
[4] = Binding affinity to 8-Amino-octanoyl-D-Ala-D-Ala peptide by surface plasmon resonance
Staphylococcus aureus [5] = test: Antibacterial activity against methicillin-resistant vancomycin-susceptible Staphylococcus aureus SR-3637; type: functional; details: SR3637
Enterococcus faecium [6] = test: Antibacterial activity against vancomycin-susceptible Enterococcus faecium SR-16972; type: functional; details: SR16972
Enterococcus faecium [7] = test: Antibacterial activity against vancomycin A-resistant Enterococcus faecium SR-7940; type: functional; details: SR7940
Enterococcus faecalis [8] = test: Antibacterial activity against vancomycin B-resistant Enterococcus faecalis SR-23630; type: functional; details: SR23630
Staphylococcus aureus [9] = test: Antibacterial activity against vancomycin A-resistant Staphylococcus aureus VRS2; type: functional
Staphylococcus aureus [10] = test: Antibacterial activity against vancomycin-susceptible Staphylococcus aureus RN4220; type: functional

SMILES | MIC (Enterococcus faecalis [1]) [µg/mL] | MIC (Enterococcus faecium [2]) [µg/mL] | MIC (Enterococcus faecalis [3]) [µg/mL] | Kd [4] [µM] | MIC (Staphylococcus aureus [5]) [µg/mL] | MIC (Enterococcus faecium [6]) [µg/mL] | MIC (Enterococcus faecium [7]) [µg/mL] | MIC (Enterococcus faecalis [8]) [µg/mL] | MIC (Staphylococcus aureus [9]) [µg/mL] | MIC (Staphylococcus aureus [10]) [µg/mL]
CCCCCC/C=C/c1cc2ccc1Oc1cc3cc(c1O[C@@H]1O[C@H](CO)[C@@H](O)[C@H](O)[C@H]1O[C@H]1C[C@](C)(N)[C@H](O)[C@H](C)O1)Oc1ccc(cc1/C=C/CCCCCC)[C@@H](O)[C@@H](NC(=O)[C@@H](CC(C)C)NC)C(=O)N[C@@H](CC(N)=O)C(=O)N[C@H]3C(=O)N[C@H]1C(=O)N[C@H](C(=O)N[C@H](C(=O)O)c3cc(O)cc(O)c3-c3cc1ccc3O)[C@@H]2O | > 64 | > 64 | 32 (≈ 20 µM) | 11.6 | 64 (≈ 40 µM) | 32 (≈ 20 µM) | > 64 | > 64 | > 64 | 32 (≈ 20 µM)
CN[C@H](CC(C)C)C(=O)N[C@H]1C(=O)N[C@@H](CC(N)=O)C(=O)N[C@H]2C(=O)N[C@H]3C(=O)N[C@H](C(=O)N[C@H](C(=O)O)c4cc(O)cc(O)c4-c4cc3ccc4O)[C@H](O)c3ccc(c(/C=C/CCCc4ccccc4)c3)Oc3cc2cc(c3O[C@@H]2O[C@H](CO)[C@@H](O)[C@H](O)[C@H]2O[C@H]2C[C@](C)(N)[C@H](O)[C@H](C)O2)Oc2ccc(cc2/C=C/CCCc2ccccc2)[C@H]1O | > 64 | > 64 | 32 (≈ 19.2 µM) | – | 64 (≈ 38.4 µM) | 32 (≈ 19.2 µM) | > 64 | > 64 | > 64 | 32 (≈ 19.2 µM)
CN[C@H](CC(C)C)C(=O)N[C@H]1C(=O)N[C@@H](CC(N)=O)C(=O)N[C@H]2C(=O)N[C@H]3C(=O)N[C@H](C(=O)N[C@H](C(=O)O)c4cc(O)cc(O)c4-c4cc3ccc4O)[C@H](O)c3ccc(c(-c4ccccc4OC)c3)Oc3cc2cc(c3O[C@@H]2O[C@H](CO)[C@@H](O)[C@H](O)[C@H]2O[C@H]2C[C@](C)(N)[C@H](O)[C@H](C)O2)Oc2ccc(cc2Cl)[C@H]1O | > 64 | > 64 | 8 (≈ 5.26 µM) | – | 8 (≈ 5.26 µM) | 4 (≈ 2.63 µM) | > 64 | > 64 | 64 (≈ 42.1 µM) | 4 (≈ 2.63 µM)
CN[C@H](CC(C)C)C(=O)N[C@H]1C(=O)N[C@@H](CC(N)=O)C(=O)N[C@H]2C(=O)N[C@H]3C(=O)N[C@H](C(=O)N[C@H](C(=O)O)c4cc(O)cc(O)c4-c4cc3ccc4O)[C@H](O)c3ccc(c(/C=C/c4ccccc4)c3)Oc3cc2cc(c3O[C@@H]2O[C@H](CO)[C@@H](O)[C@H](O)[C@H]2O[C@H]2C[C@](C)(N)[C@H](O)[C@H](C)O2)Oc2ccc(cc2Cl)[C@H]1O | > 64 | > 64 | 1 (≈ 0.659 µM) | – | 2 (≈ 1.32 µM) | 1 (≈ 0.659 µM) | > 64 | 64 (≈ 42.2 µM) | 16 (≈ 10.5 µM) | 1 (≈ 0.659 µM)
CN[C@H](CC(C)C)C(=O)N[C@H]1C(=O)N[C@@H](CC(N)=O)C(=O)N[C@H]2C(=O)N[C@H]3C(=O)N[C@H](C(=O)N[C@H](C(=O)O)c4cc(O)cc(O)c4-c4cc3ccc4O)[C@H](O)c3ccc(c(/C=C/c4ccc(OC)cc4)c3)Oc3cc2cc(c3O[C@@H]2O[C@H](CO)[C@@H](O)[C@H](O)[C@H]2O[C@H]2C[C@](C)(N)[C@H](O)[C@H](C)O2)Oc2ccc(cc2Cl)[C@H]1O | > 64 | > 64 | 1 (≈ 0.646 µM) | – | 2 (≈ 1.29 µM) | 1 (≈ 0.646 µM) | > 64 | 32 (≈ 20.7 µM) | 16 (≈ 10.3 µM) | 1 (≈ 0.646 µM)
CN[C@H](CC(C)C)C(=O)N[C@H]1C(=O)N[C@@H](CC(N)=O)C(=O)N[C@H]2C(=O)N[C@H]3C(=O)N[C@H](C(=O)N[C@H](C(=O)O)c4cc(O)cc(O)c4-c4cc3ccc4O)[C@H](O)c3ccc(c(/C=C/c4ccc(C(F)(F)F)cc4)c3)Oc3cc2cc(c3O[C@@H]2O[C@H](CO)[C@@H](O)[C@H](O)[C@H]2O[C@H]2C[C@](C)(N)[C@H](O)[C@H](C)O2)Oc2ccc(cc2Cl)[C@H]1O | 64 (≈ 40.4 µM) | 32 (≈ 20.2 µM) | 1 (≈ 0.631 µM) | – | 2 (≈ 1.26 µM) | 1 (≈ 0.631 µM) | > 64 | 2 (≈ 1.26 µM) | 64 (≈ 40.4 µM) | 1 (≈ 0.631 µM)
CN[C@H](CC(C)C)C(=O)N[C@H]1C(=O)N[C@@H](CC(N)=O)C(=O)N[C@H]2C(=O)N[C@H]3C(=O)N[C@H](C(=O)N[C@H](C(=O)O)c4cc(O)cc(O)c4-c4cc3ccc4O)[C@H](O)c3ccc(c(-c4ccccc4)c3)Oc3cc2cc(c3O[C@@H]2O[C@H](CO)[C@@H](O)[C@H](O)[C@H]2O[C@H]2C[C@](C)(N)[C@H](O)[C@H](C)O2)Oc2ccc(cc2Cl)[C@H]1O | > 64 | > 64 | 4 (≈ 2.68 µM) | – | 4 (≈ 2.68 µM) | 2 (≈ 1.34 µM) | > 64 | 64 (≈ 42.9 µM) | 64 (≈ 42.9 µM) | 4 (≈ 2.68 µM)
CN[C@H](CC(C)C)C(=O)N[C@H]1C(=O)N[C@@H](CC(N)=O)C(=O)N[C@H]2C(=O)N[C@H]3C(=O)N[C@H](C(=O)N[C@H](C(=O)O)c4cc(O)cc(O)c4-c4cc3ccc4O)[C@H](O)c3ccc(c(-c4ccc(OC)cc4)c3)Oc3cc2cc(c3O[C@@H]2O[C@H](CO)[C@@H](O)[C@H](O)[C@H]2O[C@H]2C[C@](C)(N)[C@H](O)[C@H](C)O2)Oc2ccc(cc2Cl)[C@H]1O | > 64 | > 64 | 4 (≈ 2.63 µM) | – | 4 (≈ 2.63 µM) | 2 (≈ 1.31 µM) | > 64 | > 64 | > 64 | 4 (≈ 2.63 µM)
CCCCCC/C=C/c1cc2ccc1Oc1cc3cc(c1O[C@@H]1O[C@H](CO)[C@@H](O)[C@H](O)[C@H]1O[C@H]1C[C@](C)(N)[C@H](O)[C@H](C)O1)Oc1ccc(cc1Cl)[C@@H](O)[C@@H](NC(=O)[C@@H](CC(C)C)NC)C(=O)N[C@@H](CC(N)=O)C(=O)N[C@H]3C(=O)N[C@H]1C(=O)N[C@H](C(=O)N[C@H](C(=O)O)c3cc(O)cc(O)c3-c3cc1ccc3O)[C@@H]2O | > 64 | > 64 | 2 (≈ 1.31 µM) | 3.77 | 2 (≈ 1.31 µM) | 2 (≈ 1.31 µM) | > 64 | > 64 | > 64 | 1 (≈ 0.656 µM)
CN[C@H](CC(C)C)C(=O)N[C@H]1C(=O)N[C@@H](CC(N)=O)C(=O)N[C@H]2C(=O)N[C@H]3C(=O)N[C@H](C(=O)N[C@H](C(=O)O)c4cc(O)cc(O)c4-c4cc3ccc4O)[C@H](O)c3ccc(c(/C=C/CCCc4ccccc4)c3)Oc3cc2cc(c3O[C@@H]2O[C@H](CO)[C@@H](O)[C@H](O)[C@H]2O[C@H]2C[C@](C)(N)[C@H](O)[C@H](C)O2)Oc2ccc(cc2Cl)[C@H]1O | > 64 | > 64 | 1 (≈ 0.641 µM) | – | 2 (≈ 1.28 µM) | 2 (≈ 1.28 µM) | > 64 | > 64 | > 64 | 1 (≈ 0.641 µM)
CN[C@H](CC(C)C)C(=O)N[C@H]1C(=O)N[C@@H](CC(N)=O)C(=O)N[C@H]2C(=O)N[C@H]3C(=O)N[C@H](C(=O)N[C@H](C(=O)O)c4cc(O)cc(O)c4-c4cc3ccc4O)[C@H](O)c3ccc(c(/C=C/c4ccc(-c5ccccc5)cc4)c3)Oc3cc2cc(c3O[C@@H]2O[C@H](CO)[C@@H](O)[C@H](O)[C@H]2O[C@H]2C[C@](C)(N)[C@H](O)[C@H](C)O2)Oc2ccc(cc2Cl)[C@H]1O | 32 (≈ 20.1 µM) | 0.5 (≈ 0.314 µM) | 0.25 (≈ 0.157 µM) | – | 0.5 (≈ 0.314 µM) | 0.25 (≈ 0.157 µM) | 64 (≈ 40.2 µM) | 2 (≈ 1.26 µM) | > 64 | 0.25 (≈ 0.157 µM)
C/C=C/c1cc2ccc1Oc1cc3cc(c1O[C@@H]1O[C@H](CO)[C@@H](O)[C@H](O)[C@H]1O[C@H]1C[C@](C)(N)[C@H](O)[C@H](C)O1)Oc1ccc(cc1/C=C/C)[C@@H](O)[C@@H](NC(=O)[C@@H](CC(C)C)NC)C(=O)N[C@@H](CC(N)=O)C(=O)N[C@H]3C(=O)N[C@H]1C(=O)N[C@H](C(=O)N[C@H](C(=O)O)c3cc(O)cc(O)c3-c3cc1ccc3O)[C@@H]2O | > 64 | > 64 | 2 (≈ 1.37 µM) | – | 2 (≈ 1.37 µM) | 1 (≈ 0.685 µM) | > 64 | > 64 | 64 (≈ 43.8 µM) | 1 (≈ 0.685 µM)
C/C=C/c1cc2ccc1Oc1cc3cc(c1O[C@@H]1O[C@H](CO)[C@@H](O)[C@H](O)[C@H]1O[C@H]1C[C@](C)(N)[C@H](O)[C@H](C)O1)Oc1ccc(cc1/C=C/CCCCCC)[C@@H](O)[C@@H]1NC(=O)[C@H](NC(=O)[C@@H]3NC(=O)[C@H](CC(N)=O)NC(=O)[C@H](NC(=O)[C@@H](CC(C)C)NC)[C@@H]2O)c2ccc(O)c(c2)-c2c(O)cc(O)cc2[C@@H](C(=O)O)NC1=O | > 64 | > 64 | 32 (≈ 20.9 µM) | – | 64 (≈ 41.8 µM) | 32 (≈ 20.9 µM) | > 64 | > 64 | > 64 | 32 (≈ 20.9 µM)
CN[C@H](CC(C)C)C(=O)N[C@H]1C(=O)N[C@@H](CC(N)=O)C(=O)N[C@H]2C(=O)N[C@H]3C(=O)N[C@H](C(=O)N[C@H](C(=O)O)c4cc(O)cc(O)c4-c4cc3ccc4O)[C@H](O)c3ccc(c(Cl)c3)Oc3cc2cc(c3O[C@@H]2O[C@H](CO)[C@@H](O)[C@H](O)[C@H]2O[C@H]2C[C@](C)(N)[C@H](O)[C@H](C)O2)Oc2ccc(cc2Cl)[C@H]1O [VANCOMYCIN] | > 64 | > 64 | 2 (≈ 1.38 µM) | 3.39 | – | – | > 64 | – | > 64 | –
